Data taken from patent publication US4772590A, “Oily composition of aclarubicin or hydrochloride thereof” (priority 1983, dated 1988).
≈ marks a conversion by molar mass, not a printed value. Where a name gives a salt, the structure may show the parent alone. Read-outs that look alike come from different tables or passages of the source. Each block holds one molecule with its values, some of them ahead of it.

How the values were obtained:
[1] = solubility of aclarubicin or its hydrochloride in solvents and in fats and oils; assay type: physicochemical; conditions: for solubility: organic solvent or mixture
[2] = solubilization of aclarubicin or aclarubicin hydro-chloride in fats and oils by acids; assay type: physicochemical

Structure (SMILES): CC[C@@]1(O)C[C@H](O[C@H]2C[C@H](N(C)C)[C@H](O[C@H]3C[C@H](O)[C@H](O[C@H]4CCC(=O)[C@H](C)O4)[C@H](C)O3)[C@H](C)O2)c2c(cc3c(c2O)C(=O)c2c(O)cccc2C3=O)[C@H]1C(=O)OC [Aclarubicin hydrochloride]
- solubility in acetone ([1]; acetone): freely soluble
- solubility in ether ([1]; ether): practically insoluble
- solubility in fats and oils ([1]; fats and oils): very sparingly soluble
- solubility in methanol ([1]; methanol): freely soluble
- solubility in n-hexane ([1]; n-hexane): practically insoluble
- solubility ([1]; olive oil, olive oil, aclarubicin hydrochloride, read-out: solubility in olive oil): ~4 µg/mL
- solubility ([1]; sesame oil, sesame oil, aclarubicin hydrochloride, read-out: solubility in sesame oil): 16 µg/mL
- solubility in water ([1]; water): freely soluble

Structure (SMILES): CC[C@@]1(O)C[C@H](O[C@H]2C[C@H](N(C)C)[C@H](O[C@H]3C[C@H](O)[C@H](O[C@H]4CCC(=O)[C@H](C)O4)[C@H](C)O3)[C@H](C)O2)c2c(cc3c(c2O)C(=O)c2c(O)cccc2C3=O)[C@H]1C(=O)OC [Aclarubicin, methyl(1R, 2R, 4S)-2-ethyl-1,2,3,4,6,11-hexahydro-2,5,7-trihydroxy-6,11-dioxo-4-{[2,3,6-trideoxy-4-O-[2,6-dideoxy-4-O-((2R,6S)-tetrahydro-6-methyl-5-oxo-2H-pyran-2-yl)-α-1-lyxohexopyranocyl]-3-dimethylamino-α-1-lyxo-hexopyranocyl]oxy}-1-naphthacene carboxylate]
- solubility ([1]; olive oil, olive oil, aclarubicin, read-out: solubility in olive oil): 10000 µg/mL (≈ 12.3 mM)
- solubility ([1]; sesame oil, sesame oil, aclarubicin, read-out: solubility in sesame oil): 10000 µg/mL (≈ 12.3 mM)

- dissolution of polycarboxylic acid in fats and oils [2]: not dissolved in fats and oils
Structure (SMILES): O=C(O)/C=C/C(=O)O [fumaric acid]
